# What was measured:
# [1] = tested on: Soybean plants containing control nucleotide sequence (S4, S5); experiment: Herbicide-resistance effect of soybean plants, control sequence (spraying, damage degree); assay type: in vivo; details: 2240 g ae/ha (4x); for Average damage % 6 HAT: 6 hours after spraying; for Average damage % 2 DAT: 2 days after spraying; for Average damage % 7 DAT: 7 days after spraying; for Average damage % 14 DAT: 14 days after spraying
# Procedure: (§1) Herbicide resistance effects tests to 2,4-D dimethyl ammonium salt and agroxone of soybean plants containing 24DT21 nucleotide sequence and control nucleotide sequence respectively and wild type soybean plants (stages V3-V4) were performed respectively.
# (§2) Soybean plants containing 24DT21 nucleotide sequence, control nucleotide sequence and wild type soybean plants were taken and spayed with 2,4-D dimethyl ammonium salt (2240 g ae/ha, four-folds concentration in field), agroxone (2240 g ae/ha, four-folds concentration in field) and blank solvent (water). Take statistics of the damage degree of each plant caused by herbicides according to the curling degree of leaves and the damage degree of growing point six hours ([…]), two days (2DAT), seven days (7DAT) and 14 days (14DAT) after spraying respectively: if leaves are flat like wild-type leaves and the growing point is intact, the damage degree is 0%; if leaves curl up and wilt and the growing point is died, the damage degree is 100%. There are three strains contained a transferred 24DT21 nucleotide sequence (S1, S2 and S3), two strains contained a transferred control sequence (S4 and S5) and one wild-type strain (CK1) in total; select 10˜15 plants from each strain for testing.
# [2] = tested on: Corn plants containing 24DT21 nucleotide sequence (S6, S7, S8); experiment: Herbicide-resistance effect test of transgenic corn T1 plants (spraying, prop root development); assay type: in vivo; details: 8960 g ae/ha (16x), 21 days after spraying; for Abnormal development of brace roots / Normal development of brace roots: number of plants
# Procedure: (§3) Herbicide resistance effects tests to 2,4-D dimethyl ammonium salt and agroxone of corn plants containing 24DT21 nucleotide sequence, control nucleotide sequence respectively and wild type corn plants (stages V3-V4) were performed respectively.
# (§4) Corn plants containing 24DT21 nucleotide sequence, control nucleotide sequence respectively and wild type corn plants were taken and spayed with 2,4-D dimethyl ammonium salt (8960 g ae/ha, 16-folds concentration in field), agroxone (8960 g ae/ha, 16-folds concentration in field) and blank solvent (water) respectively. Prop root development was counted 21 days after spaying. Three strains (S6, S7 and S8) of corn plants transformed with 24DT21 nucleotide sequence, two strains (S9 and S10) of corn plants transformed with control nucleotide sequence and 1 strain of wild type (CK2) corn were selected and 10-15 plants from each stain were tested.
# [3] = tested on: wild type corn plants (CK2); experiment: Herbicide-resistance effect test of wild type corn (spraying, prop root development); assay type: in vivo; details: wild type corn strain CK2, 8960 g ae/ha (16x), 21 days after spraying
# Procedure: as §3, §4
# [4] = tested on: Corn plants containing control nucleotide sequence (S9, S10); experiment: Herbicide-resistance effect test of corn plants, control sequence (spraying, prop root development); assay type: in vivo; details: 8960 g ae/ha (16x), 21 days after spraying; for Abnormal development of brace roots / Normal development of brace roots: number of plants
# Procedure: as §3, §4
# [5] = tested on: wild-type Arabidopsis plants; experiment: Herbicide resistance effect test of wild-type Arabidopsis (spraying); assay type: in vivo, Arabidopsis thaliana; details: genotype Wild, 560 g ae/ha (1x)
# Description: (§5) 24DT21 gene was used to transform Arabidopsis for the first time. At first, T1 transformants were selected from the background of un-transformed seeds, using glufosinate-ammonium selection scheme. About 20000 T1 seeds are screened among which 139 strains of T1 generation positive transformants (PAT gene) were identified, i.e. the transformation efficiency was about 0.7%. Herbicide resistance effect tests to 2,4-D dimethyl ammonium salt and agroxone of Arabidopsis T1 plants transformed with 24DT21 nucleotide sequence, control nucleotide sequence respectively and wild-type Arabidopsis plants were performed after 18 days of planting.
# (§6) Arabidopsis T1 plants transformed with 24DT21 nucleotide sequence, control nucleotide sequence respectively and wild-type Arabidopsis plants were sprayed with 2,4-D dimethyl ammonium salt (560 g ae/ha, 1-fold concentration in field), agroxone (560 g ae/ha, 1-fold concentration in field) and blank solvent (water). Resistance conditions of the plants were counted 7 days and 14 days after spraying. Plants with growth conditions consistent with blank solvent (water) 7 days after spaying were classified as highly resistant plants; Plants with curly rosette leaves 7 days after spaying were classified as moderately resistant plants; Plants incapable of bolting 14 days after spaying were classified as low-resistant plants and the dead plants 14 days after spaying were classified as non-resistant plants. Because each Arabidopsis T1 plant is an independent transformation event, significant differences of individual T1 responses can be expected under a given dose.
# [6] = tested on: Soybean plants containing 24DT21 nucleotide sequence (S1, S2, S3); experiment: Herbicide-resistance effect of transgenic soybean T1 plants (spraying, damage degree); assay type: in vivo; details: 2240 g ae/ha (4x); for Average damage % 6 HAT: 6 hours after spraying; for Average damage % 2 DAT: 2 days after spraying; for Average damage % 7 DAT: 7 days after spraying; for Average damage % 14 DAT: 14 days after spraying
# Procedure: as §1, §2
# [7] = tested on: wild type soybean plants (CK1); experiment: Herbicide-resistance effect of wild type soybean (spraying, damage degree); assay type: in vivo; details: wild-type soybean strain CK1, 2240 g ae/ha (4x)
# Procedure: as §1, §2
# [8] = tested on: Arabidopsis T1 plants transformed with 24DT21 nucleotide sequence; experiment: Herbicide resistance effect test of transgenic Arabidopsis T1 plants (spraying); assay type: in vivo, Arabidopsis thaliana; details: genotype 24DT21, 560 g ae/ha (1x)
# Description: as §5, §6
# [9] = tested on: Arabidopsis T1 plants transformed with control nucleotide sequence; experiment: Herbicide resistance effect test of Arabidopsis T1 plants, control sequence (spraying); assay type: in vivo, Arabidopsis thaliana; details: genotype Control, 560 g ae/ha (1x)
# Description: as §5, §6
# [10] = soybean strain S4 (control sequence)
# [11] = soybean strain S5 (control sequence)
# [12] = corn strain S9 (control sequence)
# [13] = corn strain S10 (control sequence)
# [14] = number of plants of 32 dead 14 days after spraying
# [15] = number of plants of 32 incapable of bolting 14 days after spraying
# [16] = number of plants of 32 with curly rosette leaves 7 days after spraying
# [17] = number of plants of 32 with growth consistent with blank solvent 7 days after spraying
smiles,measurement,setting,value
"CNC.O=C(O)COc1ccc(Cl)cc1Cl [2,4-D dimethyl ammonium salt]",Average damage % 6 HAT,[1]; [10],46%
same,Average damage % 2 DAT,[1]; [10],76%
same,Average damage % 7 DAT,[1]; [10],96%
same,Average damage % 14 DAT,[1]; [10],100%
same,Average damage % 6 HAT,[1]; [11],53%
same,Average damage % 2 DAT,[1]; [11],77%
same,Average damage % 7 DAT,[1]; [11],91%
same,Average damage % 14 DAT,[1]; [11],100%
same,Proportion of normal development of brace roots,[2]; corn strain S6 (24DT21),100.00%
same,Abnormal development of brace roots,[2]; corn strain S6 (24DT21),0
same,Normal development of brace roots,[2]; corn strain S6 (24DT21),12
same,Proportion of normal development of brace roots,[2]; corn strain S7 (24DT21),100.00%
same,Abnormal development of brace roots,[2]; corn strain S7 (24DT21),0
same,Normal development of brace roots,[2]; corn strain S7 (24DT21),13
same,Proportion of normal development of brace roots,[2]; corn strain S8 (24DT21),100.00%
same,Abnormal development of brace roots,[2]; corn strain S8 (24DT21),0
same,Normal development of brace roots,[2]; corn strain S8 (24DT21),11
same,Proportion of normal development of brace roots,[3],0%
same,Abnormal development of brace roots,[3]; number of plants,15
same,Normal development of brace roots,[3]; number of plants,0
same,Proportion of normal development of brace roots,[4]; [12],0%
same,Abnormal development of brace roots,[4]; [12],12
same,Normal development of brace roots,[4]; [12],0
same,Proportion of normal development of brace roots,[4]; [13],0%
same,Abnormal development of brace roots,[4]; [13],11
same,Normal development of brace roots,[4]; [13],0
same,Non-resistant,[5]; [14],32
same,Low resistant,[5]; [15],0
same,Moderate resistant,[5]; [16],0
same,High resistant,[5]; [17],0
same,Average damage % 6 HAT,[6]; soybean strain S1 (24DT21),6%
same,Average damage % 2 DAT,[6]; soybean strain S1 (24DT21),4%
same,Average damage % 7 DAT,[6]; soybean strain S1 (24DT21),0%
same,Average damage % 14 DAT,[6]; soybean strain S1 (24DT21),0%
same,Average damage % 6 HAT,[6]; soybean strain S2 (24DT21),11%
same,Average damage % 2 DAT,[6]; soybean strain S2 (24DT21),4%
same,Average damage % 7 DAT,[6]; soybean strain S2 (24DT21),0%
same,Average damage % 14 DAT,[6]; soybean strain S2 (24DT21),0%
same,Average damage % 6 HAT,[6]; soybean strain S3 (24DT21),3%
same,Average damage % 2 DAT,[6]; soybean strain S3 (24DT21),0%
same,Average damage % 7 DAT,[6]; soybean strain S3 (24DT21),0%
same,Average damage % 14 DAT,[6]; soybean strain S3 (24DT21),0%
same,Average damage % 6 HAT,[7]; 6 hours after spraying,48%
same,Average damage % 2 DAT,[7]; 2 days after spraying,72%
same,Average damage % 7 DAT,[7]; 7 days after spraying,94%
same,Average damage % 14 DAT,[7]; 14 days after spraying,100%
same,Non-resistant,[8]; [14],4
same,Low resistant,[8]; [15],1
same,Moderate resistant,[8]; [16],3
same,High resistant,[8]; [17],24
same,Non-resistant,[9]; [14],32
same,Low resistant,[9]; [15],0
same,Moderate resistant,[9]; [16],0
same,High resistant,[9]; [17],0

# — patent US10562944B2, “Herbicide-resistant protein, encoding gene and use thereof” (BEIJING DABEINONG BIOTECHNOLOGY CO., LTD., priority 2015, dated 2020)
